Common to all, as to assay type: physicochemical
A short description of series [1]: Glass transition. To be noted: monohydrochloride.
Series [2] is described as follows: Solid state by X-ray powder diffraction. To be noted: * indicates absence of crystalline API; for Solid state / Polymorphy (X-Ray, XRPD): monohydrochloride. An excerpt: Bragg's law describes the diffraction of crystalline material with the equation “2d·sin(theta)=n·lambda”, wherein “d” denotes perpendicular distance (in Angstroms) between pairs of adjacent planes in a crystal (“d-spacing”), “theta” denotes the Bragg angle, “lambda” denotes the wavelength and “n” is an integer. When Bragg's law is fulfilled, the reflected beams are in phase and interfere constructively so that Bragg diffraction peaks are observed in the X-ray diffraction pattern. At angles of incidence other than the Bragg angle, reflected beams are out of phase and destructive interference or cancellation occurs. […] The XRPD pattern of an amorphous material is further characterized by one or more amorphous halos.
The term “XRPD” denotes the analytical method of X-Ray Powder Diffraction. The repeatability of the angular values is in the range of 2Theta±0.2°, more particularly in the range of 2Theta±0.1°. The term “approximately” given in combination with an angular value denotes the variance which is in the range of 2Theta±0.2°, particularly in the range of 2Theta±0.1°. The relative XRPD peak intensity is dependent upon many factors such as structure factor, temperature factor, crystallinity, polarization factor, multiplicity, and Lorentz factor. Relative intensities may vary considerably from one measurement to another due to preferred orientation effects. According to USP 941 (US Pharmacopoeia, 37th Edition, General Chapter 941), relative intensities between two samples of the same material may vary considerably due to “preferred orientation” effects. Anisotropic materials adopting preferred orientation will lead to anisotropic distribution of properties such as modulus, strength, ductility, toughness, electrical conductivity, thermal expansion, etc., as described e.g. in Kocks U. F. et al. (Texture and Anisotropy: Preferred Orientations in Polycrystals and Their Effect on Materials Properties, Cambridge University Press, 2000). In XRPD but also Raman spectroscopy, preferred orientations cause a change in the intensity distribution. Preferred orientation effects are particularly pronounced with crystalline APIs of relatively large particle size.

Series [3] in a line: Particle size distribution (d10, d50, d90) by laser diffraction. The text has this:
FIG. 6 illustrates particle size distribution of the material of Example 6C (Batch HQ00003) spray dried with two-feed nozzle as obtained by laser diffraction A bimodal particle size distribution is obvious. FIG. 9 illustrates particle size distribution of spray dried material with rotary wheel nozzle, i.e. of the material of batch BS1506SA03 of Example 13 (Table 20) obtained using a Malvern Mastersizer 2000 equipped with Hydro 2000S wet sample dispersion unit (Malvern Instruments Ltd, Malvern/UK). A monomodal particle size distribution is obvious. The terms “d50 value” (sometimes also referred to as “d(0.5)-value”) and “mass-median diameter” (or MMD) can be used interchangeably and denote the average particle size by mass, i.e. the average equivalent diameter of a particle, which is defined as the diameter where 50% (w) of the particles of the ensemble have a larger equivalent spherical diameter, and the other 50% (w) have a smaller equivalent spherical diameter. In analogy, the term “d10-value” denotes the particle diameter wherein 10% (w) of the particles of the ensemble have a smaller equivalent spherical diameter. In analogy, the term “d90-value” denotes the particle diameter wherein 90% (w) of the particles of the ensemble have a smaller equivalent spherical diameter.

Series [4] in a line: Bulk density, tapped density and Carr index. The conditions noted are these: monohydrochloride.
Series [5] is described as follows: Shear cell testing with Ring Shear Tester RST-XS. The conditions noted are these: Pre-shear stress 1000 PA, 30 mL shear cell; monohydrochloride. An excerpt: Similar to the classification used by Jenike (Dietmar Schulze, Pulver und Schüttgüter, 2009 Springer Verlag Berlin/DE), one can define flow behaviour based on the flow function constant (ffc) as follows:
The larger the flow function constant ffc, i.e., the smaller the ratio of the unconfined yield strength (σc) to the consolidation stress (σ1), the better a bulk solid's flow.

Where [6] appears, read: spray dried amorphous ipatasertib monohydrochloride powder.
[7] abbreviates: spray-dried amorphous ipatasertib monohydrochloride, rotary wheel atomizer.

Structures can show the parent of a compound that is named as a salt.

As to `CC(C)NC[C@@H](C(=O)N1CCN(c2ncnc3c2[C@H](C)C[C@H]3O)CC1)c1ccc(Cl)cc1` [6A′, ipatasertib monohydrochloride], in series [1], the “Glass Transition tg” value amounted to 131 °C. The “Solid state / Polymorphy (X-Ray, XRPD)” value in series [2] is “amorphous”. Moreover, in series [3] (setting [6]), the “Particle size d10” value came out at 0.7 μm, the “Particle size d50” value was determined as 3.8 μm and the “Particle size d90” value amounted to 7.5 μm.
For the molecule `CC(C)NC[C@@H](C(=O)N1CCN(c2ncnc3c2[C@H](C)C[C@H]3O)CC1)c1ccc(Cl)cc1` [6B′, ipatasertib monohydrochloride], the “Glass Transition tg” value in series [1] came to 132 °C. In addition, the “Solid state / Polymorphy (X-Ray, XRPD)” value in series [2] is reported as “amorphous”. For the same molecule, in series [3] (setting [6]), the “Particle size d10” value is listed as 0.7 μm, the “Particle size d50” value came to 5.2 μm and the “Particle size d90” value worked out at 10.8 μm.
In series [4] (setting [7]), `CC(C)NC[C@@H](C(=O)N1CCN(c2ncnc3c2[C@H](C)C[C@H]3O)CC1)c1ccc(Cl)cc1` [BS1506SA04, ipatasertib monohydrochloride] returned a Bulk density of 0.40 gcm^−3 and a Tapped density of 0.56 gcm^−3. Further, in series [5], the “Consolidation stress (σ1)” value came to 1707 PA and the “Flow Function Constant (ffc)” value came to 3.2. For the same molecule, the “Polymorphy (X-Ray)” value in series [2] was “amorphous*”. For the same molecule, in series [3] (setting [7]), the “Particle size d10” value turned out to be 11 μm, the “Particle size d50” value came to 30 μm and the “Particle size d90” value came out at 62 μm.
In series [4] (setting [7]), `CC(C)NC[C@@H](C(=O)N1CCN(c2ncnc3c2[C@H](C)C[C@H]3O)CC1)c1ccc(Cl)cc1` [BS1506SA05, ipatasertib monohydrochloride] yielded a Bulk density of 0.41 gcm^−3 and a Tapped density of 0.57 gcm^−3. In addition, in series [5], the “Consolidation stress (σ1)” value was found to be 1668 PA and the “Flow Function Constant (ffc)” value was found to be 3.5. Moreover, the “Polymorphy (X-Ray)” value in series [2] is reported as “amorphous*”. In series [3] (setting [7]), the “Particle size d10” value was 13 μm, the “Particle size d50” value was 33 μm and the “Particle size d90” value was 65 μm.
In series [4] (setting [7]), `CC(C)NC[C@@H](C(=O)N1CCN(c2ncnc3c2[C@H](C)C[C@H]3O)CC1)c1ccc(Cl)cc1` [BS1506SA06, ipatasertib monohydrochloride] had a Bulk density of 0.41 gcm^−3 and a Tapped density of 0.56 gcm^−3. For the same molecule, in series [5], the “Consolidation stress (σ1)” value amounted to 1683 PA and the “Flow Function Constant (ffc)” value is recorded as 3.2. The “Polymorphy (X-Ray)” value in series [2] is recorded as “amorphous*”. In series [3] (setting [7]), the “Particle size d10” value is reported as 12 μm, the “Particle size d50” value was found to be 32 μm and the “Particle size d90” value came to 63 μm.
For the molecule `CC(C)NC[C@@H](C(=O)N1CCN(c2ncnc3c2[C@H](C)C[C@H]3O)CC1)c1ccc(Cl)cc1` [BS1506SA07, ipatasertib monohydrochloride], in series [4] (setting [7]), the Bulk density amounted to 0.42 gcm^−3 and the Tapped density amounted to 0.56 gcm^−3. Moreover, in series [5], the “Consolidation stress (σ1)” value is given as 1705 PA and the “Flow Function Constant (ffc)” value is 3.1. Further, in series [2], the “Polymorphy (X-Ray)” value is “amorphous*”. In addition, in series [3] (setting [7]), the “Particle size d10” value amounted to 13 μm, the “Particle size d50” value worked out at 32 μm and the “Particle size d90” value is 65 μm.
In series [4] (setting [7]), `CC(C)NC[C@@H](C(=O)N1CCN(c2ncnc3c2[C@H](C)C[C@H]3O)CC1)c1ccc(Cl)cc1` [BS1506SA08, ipatasertib monohydrochloride] gave a Bulk density of 0.43 gcm^−3 and a Tapped density of 0.56 gcm^−3. In addition, in series [5], the “Consolidation stress (σ1)” value was determined as 1686 PA and the “Flow Function Constant (ffc)” value is recorded as 3.4. Moreover, the “Polymorphy (X-Ray)” value in series [2] is recorded as “amorphous*”. Moreover, in series [3] (setting [7]), the “Particle size d10” value amounted to 13 μm, the “Particle size d50” value was 34 μm and the “Particle size d90” value was determined as 68 μm.
In series [4] (setting [6]), `CC(C)NC[C@@H](C(=O)N1CCN(c2ncnc3c2[C@H](C)C[C@H]3O)CC1)c1ccc(Cl)cc1` [Composition 140910415, ipatasertib monohydrochloride] returned a Bulk density of 0.42 gcm^−3 and a Tapped density of 0.57 gcm^−3. In series [5], the “Consolidation stress (σ1)” value worked out at 1710 PA and the “Flow Function Constant (ffc)” value amounted to 3.3. Also, in series [2], the “Solid state / Polymorphy (X-Ray, XRPD)” value was “amorph.*”. In series [3] (setting [6]), the “Particle size d10” value was determined as 11 μm, the “Particle size d50” value amounted to 29 μm and the “Particle size d90” value was 56 μm.
In series [4] (setting [6]), `CC(C)NC[C@@H](C(=O)N1CCN(c2ncnc3c2[C@H](C)C[C@H]3O)CC1)c1ccc(Cl)cc1` [Composition 140910416, ipatasertib monohydrochloride] came in with a Bulk density of 0.40 gcm^−3 and a Tapped density of 0.55 gcm^−3. In addition, in series [5], the “Consolidation stress (σ1)” value stood at 1731 PA and the “Flow Function Constant (ffc)” value was found to be 2.8. Further, the “Solid state / Polymorphy (X-Ray, XRPD)” value in series [2] is listed as “amorph.*”. Further, in series [3] (setting [6]), the “Particle size d10” value turned out to be 10 μm, the “Particle size d50” value is recorded as 27 μm and the “Particle size d90” value worked out at 52 μm.
For the molecule `CC(C)NC[C@@H](C(=O)N1CCN(c2ncnc3c2[C@H](C)C[C@H]3O)CC1)c1ccc(Cl)cc1` [Composition 140910417, ipatasertib monohydrochloride], in series [4] (setting [6]), the Bulk density is reported as 0.39 gcm^−3 and the Tapped density came out at 0.55 gcm^−3. Besides, in series [5], the “Consolidation stress (σ1)” value was 1726 PA and the “Flow Function Constant (ffc)” value stood at 2.9. Also, the “Solid state / Polymorphy (X-Ray, XRPD)” value in series [2] is recorded as “amorph.*”. Moreover, in series [3] (setting [6]), the “Particle size d10” value was found to be 11 μm, the “Particle size d50” value came to 27 μm and the “Particle size d90” value is on record as 54 μm.
In series [4] (setting [6]), `CC(C)NC[C@@H](C(=O)N1CCN(c2ncnc3c2[C@H](C)C[C@H]3O)CC1)c1ccc(Cl)cc1` [Composition 140910418, ipatasertib monohydrochloride] showed a Bulk density of 0.39 gcm^−3 and a Tapped density of 0.55 gcm^−3. Besides, in series [5], the “Consolidation stress (σ1)” value was 1730 PA and the “Flow Function Constant (ffc)” value came out at 3.1. In addition, in series [2], the “Solid state / Polymorphy (X-Ray, XRPD)” value is listed as “amorph.*”. In series [3] (setting [6]), the “Particle size d10” value turned out to be 10 μm, the “Particle size d50” value came to 26 μm and the “Particle size d90” value is 52 μm.
In series [4] (setting [6]), `CC(C)NC[C@@H](C(=O)N1CCN(c2ncnc3c2[C@H](C)C[C@H]3O)CC1)c1ccc(Cl)cc1` [Composition 140910419, ipatasertib monohydrochloride] yielded a Bulk density of 0.44 gcm^−3 and a Tapped density of 0.58 gcm^−3. Besides, in series [5], the “Consolidation stress (σ1)” value came to 1729 PA and the “Flow Function Constant (ffc)” value turned out to be 3.5. Moreover, in series [2], the “Solid state / Polymorphy (X-Ray, XRPD)” value is recorded as “amorph.*”. Also, in series [3] (setting [6]), the “Particle size d10” value is listed as 11 μm, the “Particle size d50” value was 33 μm and the “Particle size d90” value is 67 μm.
In series [4] (setting [6]), `CC(C)NC[C@@H](C(=O)N1CCN(c2ncnc3c2[C@H](C)C[C@H]3O)CC1)c1ccc(Cl)cc1` [Composition 140910420, ipatasertib monohydrochloride] had a Bulk density of 0.32 gcm^−3 and a Tapped density of 0.44 gcm^−3. Moreover, in series [5], the “Consolidation stress (σ1)” value is 1733 PA and the “Flow Function Constant (ffc)” value came to 2.4. Besides, in series [2], the “Solid state / Polymorphy (X-Ray, XRPD)” value is on record as “amorph.*”. In addition, in series [3] (setting [6]), the “Particle size d10” value was 9.7 μm, the “Particle size d50” value came to 24 μm and the “Particle size d90” value amounted to 47 μm.
